Test results as given in article PMC5350031 (Circulation, 2017).
Where two headings read alike, the source gives them in different places.

Tests used:
[1] = test system: β-myosin heavy chain (β-MHC); experiment: β-MHC protein expression in hearts of chronically treated mice; format: in vivo, mouse; settings: Tm-E54K hearts, chronic treatment; untreated Tm-E54K approximately 30%
[2] = test system: RSK3, MYPT1/2 and SRF phosphorylation in neonatal rat ventricular myocytes (NRVM); format: cell-based
[3] = test system: Akt, GSK-3β, β-catenin, phospholamban, ERK1/2, RSK3, SRF, MYPT1/2, SERCA2; experiment: Western blot of signaling pathways in hearts of chronically treated mice; format: in vivo, mouse
[4] = test system: hearts of Tm-E54K and NTG mice; experiment: Histology, cell cross-sectional area; format: in vivo, mouse
[5] = test system: myofilament proteins (MLC2v, TnT, cTnI, cMyBP-C); experiment: Myofilament protein phosphorylation in hearts of chronically treated mice; format: in vivo, mouse
[6] = test system: Tm-E54K and NTG mice; experiment: Echocardiography, cardiac function and morphology after three months treatment; format: in vivo, mouse
[7] = test system: detergent-extracted fiber bundles of NTG and Tm-E54K mice; format: in vivo, mouse; settings: 3 months treatment; for Hill Coefficient / Max. Tension / pCa50 (Ca^2+ concentration at half-maximal tension): Mean ± SEM, n = 6–8 fibers
[8] = Tm-E54K hearts, N = 4–6 hearts per group

## CCCCc1nc(Cl)c(CO)n1Cc1ccc(-c2ccccc2-c2nn[nH]n2)cc1 [losartan]
[1]
  β-MHC expression, % of the isoform content: approximately 10%
[2]
  MYPT1/2 phosphorylation (in words): no effect
  RSK3 phosphorylation (in words): no effect
  SRF phosphorylation (in words): no effect
[3]; NTG and Tm-E54K mice
  MYPT1/2 phosphorylation (in words): no effect
  RSK3 phosphorylation (in words): no effect
  SRF phosphorylation (in words): no effect
[3]; NTG mice, vs. untreated controls
  phospholamban (PLN) phosphorylation at S16 (in words): increase
[3]; Tm-E54K and NTG mice, vs. untreated
  SERCA2 protein expression (in words): no effect
[3]; [8]
  Akt phosphorylation at S473 (in words): decreased
  GSK-3β phosphorylation at S9 (in words): decreased
  β-catenin phosphorylation (in words): increase
[3]; Tm-E54K mice
  phospholamban (PLN) phosphorylation at S16 (in words): increase
  phospholamban (PLN) phosphorylation at T17 (in words): not the T17 site
[4]; NTG mice
  cross-sectional cell area (in words): significant decrease
[4]; Tm-E54K mice
  cross-sectional cell area (in words): no effect
[5]; Phos-Tag gel electrophoresis, NTG mice, vs. NTG untreated
  MLC2v phosphorylation (in words): significantly decreased
[5]; ProQ diamond, Tm-E54K mice, vs. TRV067-treated Tm-E54K, N = 4–6 hearts per group
  TnT phosphorylation (in words): significant decrease
[5]; mice treated with TRV067 or losartan
  cMyBP-C phosphorylation at PKA sites (in words): did not observe an increase in other PKA phosphorylatable sites, such as cMyBP-C
[6]
  cardiac output (in words): did not have improved cardiac output
  heart rate (in words): nor an increase in heart rate
[6]; vs. Tm-E54K untreated
  systolic / cardiac function (in words): no changes in cardiac function
[7]; NTG mice
  maximum tension generation (in words): decrease in maximum tension generation
  Hill Coefficient: 2.10 ± 0.12
  Max. Tension: 25.73 ± 3.31 ^† mN/mm^2
  pCa50 (Ca^2+ concentration at half-maximal tension): significant decrease in pCa50 compared to both TRV067 and untreated NTG groups
[7]; NTG mice, listed as Losartan
  pCa50 (Ca^2+ concentration at half-maximal tension): 5.60 ± 0.02 ^†
[7]; Tm-E54K mice
  maximum tension generation (in words): no significant effect
  Hill Coefficient: 2.00 ± 0.08
  Max. Tension: 27.29 ± 1.07 ^∥ mN/mm^2
